ChEMBL document CHEMBL1201862, “PubChem BioAssay data set” (2004)
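Grown in 96-well plates, cells were treated for 48 hours with each compound at five concentrations. Insufficient inhibition: endpoint recorded as highest concentration tested. GI50 is the concentration that inhibits growth by half.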 Active and inactive are the calls of the source. Rule as the data show it: active = GI50 up to about 1.1 µM and inactive = higher.

How the values were obtained:
Experiment in all cases: NCI anticancer screen, dose series, 48 h
RPMI-8226 = test system: RPMI-8226
CAKI-1 = test system: CAKI-1
SF-295 = test system: SF-295
RXF 393 = test system: RXF 393
TK-10 = test system: TK-10
OVCAR-8 = test system: OVCAR-8
HT-29 = test system: HT-29
Malme-3M = test system: Malme-3M
SK-MEL-5 = test system: SK-MEL-5
LOX IMVI = test system: LOX IMVI
UACC-257 = test system: UACC-257
M14 = test system: M14
CCRF-CEM = test system: CCRF-CEM
UACC-62 = test system: UACC-62
SK-OV-3 = test system: SK-OV-3
SK-MEL-28 = test system: SK-MEL-28
K562 = test system: K562
NCI-H23 = test system: NCI-H23
PC-3 = test system: PC-3
MOLT-4 = test system: MOLT-4
SR = test system: SR
MCF7 = test system: MCF7
MDA-MB-231 = test system: MDA-MB-231
DU-145 = test system: DU-145
HCC 2998 = test system: HCC 2998
SN12C = test system: SN12C
786-0 = test system: 786-0
HOP-62 = test system: HOP-62
EKVX = test system: EKVX
KM12 = test system: KM12
A549 = test system: A549
MDA-N = test system: MDA-N
HL-60 = test system: HL-60
SNB-75 = test system: SNB-75
SW-620 = test system: SW-620
COLO 205 = test system: COLO 205
IGROV-1 = test system: IGROV-1
HCT-15 = test system: HCT-15
T47D = test system: T47D
U-251 = test system: U-251
OVCAR-3 = test system: OVCAR-3
SF-539 = test system: SF-539
OVCAR-5 = test system: OVCAR-5
SF-268 = test system: SF-268
MDA-MB-435 = test system: MDA-MB-435
NCI-H522 = test system: NCI-H522

Measured: GI50

CC(=O)OCC12CCC3C4(C)CCCC(C)(C)C4CCC3(C)C1CC(C1=CC(=O)OC1O)O2 (configuration not stated)
active: RPMI-8226 428 nM | Malme-3M 1050 nM | CCRF-CEM 303 nM | K562 776 nM | MOLT-4 248 nM | SR 244 nM | 786-0 1090 nM | HL-60 513 nM
920 nM: HCT-15
inactive: CAKI-1 1490 nM | SF-295 2340 nM | RXF 393 2060 nM | TK-10 1900 nM | OVCAR-8 1380 nM | HT-29 1300 nM | SK-MEL-5 1860 nM | LOX IMVI 1180 nM | UACC-257 1910 nM | M14 1420 nM | UACC-62 1800 nM | SK-OV-3 2470 nM | SK-MEL-28 1530 nM | NCI-H23 1690 nM | PC-3 1310 nM | MCF7 1240 nM | MDA-MB-231 1750 nM | DU-145 2070 nM | HCC 2998 1840 nM | SN12C 1340 nM | HOP-62 2410 nM | EKVX 2430 nM | KM12 1820 nM | A549 2920 nM | MDA-N 1530 nM | SNB-75 1760 nM | SW-620 1290 nM | COLO 205 1830 nM | IGROV-1 1540 nM | T47D 1880 nM

Cc1cc(/N=C/c2c(CO)cnc(C)c2O)c(/N=C/c2c(CO)cnc(C)c2O)cc1C
inactive: U-251 > 100000 nM | OVCAR-3 > 100000 nM | SF-539 95900 nM | OVCAR-5 > 100000 nM | SF-268 > 100000 nM | MDA-MB-435 > 100000 nM | RXF 393 > 100000 nM | NCI-H522 78900 nM | Malme-3M > 100000 nM | UACC-257 > 100000 nM | CCRF-CEM 17000 nM | SK-OV-3 > 100000 nM | SK-MEL-28 > 100000 nM | K562 > 100000 nM | NCI-H23 > 100000 nM | PC-3 > 100000 nM | MCF7 75900 nM | DU-145 > 100000 nM | SN12C > 100000 nM | EKVX > 100000 nM | SW-620 > 100000 nM | T47D > 100000 nM
> 100000 nM: HCT-15
